# Data taken from patent US20120129927A1, “New Anthraquinone Derivatives” (SEALIFE PHARMA GMBH, priority 2009, published 2012).
# Entries after “also recorded” stand apart in the source; their conditions may differ. Read-outs that look alike come from different tables or passages of the source.
# What was measured:
# [1] = test system: Aspergillus fumigatus or faecalis; assay: MIC test (AFST protocol); assay type: cell-based; settings: multi-resistant Aspergillus fumigatus or faecalis, averages of multiple test runs; for MIC: read-out: MHK (MIC) ASP
# Method: (§1) The activities of the novel compounds were tested in two different screening systems. The antibacterial and antifungal activities were examined by means of an MIC test, MIC standing for “minimal inhibitory concentration” and referring to the lowest concentration of a substance at which no proliferation of microorganisms can be observed with the naked eye. The MIC is determined by means of a so called titration method in which the substance is diluted and, subsequently, the pathogen is added to it.
# (§2) Usually, this method is applied in order to determine the concentration of an antibiotic which only just inhibits the growth of a bacterial strain. The MIC is indicated in micrograms per milliliter (μg/ml), and the dilutions are conventionally carried out in log 2 steps. Herein, a starting concentration of 250 μg/ml was diluted several times, to the double volume in each case, resulting in test concentrations of 250 μg/ml, 125 μg/ml, 62.5 μg/ml, 31.2 μg/ml, 15.6 μg/ml, 7.8 μg/ml, etc. Thus, lower values indicate a better activity as an anti-infective.
# (§3) The tests were carried out according to the standards of EUCAST (European Committee for Antimicrobial Susceptibility Testing) and according to the AFST-protocol (“Antifungal Susceptibility Testing” protocol) of the European Society of Clinical Microbiology and Infectious Diseases (ESCMID).
# (§4) In the following Table 3, the test results indicating the anti-infective action of 3-O-acetyl altersolanol M, alterporriol I and J as well as of some known and structurally similar comparative substances against some multi-resistant bacteria and fungi (all of which were kindly placed at our disposal by Prof Georgopulos from the Medical University of Vienna). The data constituting averages of the values obtained in multiple test runs.
# [2] = test system: Enterococcus faecalis or faecium; assay: MIC test (titration method, EUCAST); assay type: cell-based; settings: for MIC: read-out: MHK (MIC) EK
# Method: as §1, §2, §3, §4
# Streptococcus pneumoniae = assay: MIC test (titration method, EUCAST); assay type: cell-based; settings: for MIC: read-out: MHK (MIC) STR
# Method: as §1, §2, §3, §4
# [3] = test system: methicillin-resistant Staphylococcus aureus; assay: MIC test (titration method, EUCAST); assay type: cell-based; settings: for MIC: MRSA, read-out: MHK (MIC) MRSA
# Method: as §1, §2, §3, §4
# Staphylococcus epidermis = assay: MIC test (titration method, EUCAST); assay type: cell-based; settings: for MIC: read-out: MHK (MIC) SE
# Method: as §1, §2, §3, §4
# bacteria and fungi = settings: Aly et al., Phytochemistry 69; cited from earlier work
# melanoma cells [4] = assay: Alamar Blue assay using melanoma cells; assay type: cell-based; settings: for inhibition at 10 µg/mL: read-out: inhibition / reduction of the number of melanoma cells
# Method: In this test, the dye resazurin is used as an indicator for measuring the cytotoxicity of substances. […] Depending on the degree of their toxicity, cytotoxic agents decelerate or stop this reduction.
# In the course of this experiment, melanoma cells were treated with several concentrations of 3-O-acetyl altersolanol M, i.e. with 1, 10, and 50 μg/ml, with altersolanol K and alterporriol F as comparative substances, as well as with alterporriol I+J, i.e. compound (5) of the present invention, at respective concentrations of 10 μg/ml, and incubated for 48 h, whereafter the samples' fluorescence was determined spectrophotometrically at 570/600 nm, the fluorescence being proportional to the number of surviving cells in the samples.
# The measurement results were related to the fluorescence of a blank, to which no cytotoxic agent had been added, and are shown in a graph in FIG. 1.
# [5] = Yagi et al., Phytochemistry 34(4); cited from earlier work
# Pseudomonas aeruginosa = assay: MIC test (titration method, EUCAST); assay type: cell-based; settings: multi-resistant Pseudomonas aeruginosa, averages of multiple test runs
# Method: as §1, §2, §3, §4
# melanoma cells [6] = assay: Three-dimensional tumor test in matrix gel; assay type: cell-based; settings: 30, 50 or 3,000 μg/ml, 37° C.
# Method: In addition to the above two-dimensional test, the cytotoxic action of 3-O-acetyl altersolanol M was also examined in an innovative three-dimensional test system. In this test, small tumors are grown in a matrix gel, in which the activity of an anti-cancer agent may be directly tested by adding said agent at different concentrations. A blank, i.e. melanoma cells without any cytotoxic agent, and an equal amount of melanoma cells together with 30, 50 or 3,000 μg/ml of 3-O-acetyl altersolanol M were incubated in the matrix gel for 120 hours at 37° C.
# [7] = Electrical Cell Substrate Impedance Sensing (ECIS) test; assay type: cell-based; settings: results not indicated, comparison only
# E. coli = assay: MIC test (titration method, EUCAST); assay type: cell-based; settings: Escherichia coli, read-out: MHK (MIC) EC
# Method: as §1, §2, §3, §4
# Klebsiella sp. = assay: MIC test (titration method, EUCAST); assay type: cell-based; settings: multi-resistant Klebsiella sp., averages of multiple test runs
# Method: as §1, §2, §3, §4
# [8] = test system: Gram-positive bacteria and the Gram-negative species Pseudomonas aeruginosa; settings: Okamura et al., Phytochemistry 42(1); cited from earlier work
# [9] = multi-resistant Enterococcus faecalis or faecium, averages of multiple test runs
# [10] = multi-resistant Streptococcus pneumoniae, averages of multiple test runs
# [11] = methicillin-resistant Staphylococcus aureus, averages of multiple test runs
# [12] = multi-resistant Staphylococcus epidermis, averages of multiple test runs
# [13] = 10 μg/ml, 48 h, relative to blank
# [14] = multi-resistant E. coli, averages of multiple test runs
compound,measurement,setting,value
Alterporriol A + B,MHK (MIC) ASP,[1],62.5 µg/mL
same,MHK (MIC) EK,[2]; [9],15.6 µg/mL
same,MHK (MIC) STR,Streptococcus pneumoniae; [10],7.8 µg/mL
same,MHK (MIC) MRSA,[3]; [11],15.6 µg/mL
same,MHK (MIC) SE,Staphylococcus epidermis; [12],15.6 µg/mL
alterporriol E,activity against bacteria and fungi,bacteria and fungi,do not show any activity against bacteria and fungi
"COc1cc(O)c2c(c1-c1c(OC)cc(O)c3c1C(=O)c1cc(C)c(O)c(O)c1C3=O)C(=O)C1=C(C2=O)[C@H](O)[C@@H](O)[C@@](C)(O)[C@H]1O [Example 2, 8-(4,5,6-trihydroxy-7-methyl-2-methoxy-9,10-dioxo-9H,10H-anthracen-1-yl)-(1S,2S,3R,4S)-1,2,3,4,5-pentahydroxy-7-methoxy-2-methyl-1,2,3,4-tetrahydro-9H,10H-anthracene-9,10-dione]",MIC,[1],125 µg/mL
same,MIC,[2]; [9],7.8 µg/mL
same,MIC,Streptococcus pneumoniae; [10],7.8 µg/mL
same,MIC,[3]; [11],7.8 µg/mL
same,MIC,Staphylococcus epidermis; [12],7.8 µg/mL
same,result compared with comparative substances (in words),"melanoma cells [4]; 10 μg/ml, 48 h",slightly better results than the two comparative examples
same,inhibition at 10 µg/mL,melanoma cells [4]; [13],> 10%
altersolanol E,anti-microbial activity,[5],anti-microbial activity; also recorded: completely ineffective
Indole carbaldehyde (carboxaldehyde),MHK (MIC) STR,Streptococcus pneumoniae; [10],62.5 µg/mL
same,MHK (MIC) PS,Pseudomonas aeruginosa,125 µg/mL
COc1cc(O)c2c(c1-c1c(OC)cc(O)c3c1C(=O)C1=C(C3=O)[C@H](O)[C@@H](O)[C@@](C)(O)[C@@H]1O)C(=O)C1=C(C2=O)[C@H](O)[C@@H](O)[C@@](C)(O)[C@@H]1O [alterporriol D],activity against bacteria and fungi,bacteria and fungi,do not show any activity against bacteria and fungi
COC1=CC(=O)c2c(O)c3c(c(O)c2C1=O)C[C@](C)(O)[C@H](O)[C@H]3O [Bostrycin],MIC,Streptococcus pneumoniae; [10],62.5 µg/mL
same,MIC,[3]; [11],125 µg/mL
same,MIC,Staphylococcus epidermis; [12],125 µg/mL
"COc1cc(O)c2c(c1)C(=O)C1=C(C2=O)[C@@H](O)[C@H](OC(C)=O)[C@@](C)(O)[C@@H]1O [Example 1, (1R,2S,3S,4R)-3-acetoxy-1,2,4,5-tetrahydroxy-7-methoxy-2-methyl-1,2,3,4-tetrahydroanthracene-9,10-dione]",MIC,[1],62.5 µg/mL
same,tumor appearance after 24 hours,melanoma cells [6]; 24 hours,signs of degeneration
same,tumor size after 120 hours,melanoma cells [6]; 120 hours,clearly reduced in size
same,ECIS result (in words),[7],clearly better results than alterporriol I/J
same,MIC,E. coli; [14],125 µg/mL
same,MIC,[2]; [9],7.8 µg/mL
same,MIC,Streptococcus pneumoniae; [10],7.8 µg/mL
same,MIC,Pseudomonas aeruginosa; read-out: MHK (MIC) PS,125 µg/mL
same,MIC,[3]; [11],7.8 µg/mL
same,MIC,Staphylococcus epidermis; [12],7.8 µg/mL
same,MIC,Klebsiella sp.; read-out: MHK (MIC) KL,125 µg/mL
same,inhibition at 1 µg/mL,"melanoma cells [4]; 1 μg/ml, 48 h, relative to blank, read-out: inhibition of the number of surviving cells",> 10%
same,inhibition at 10 µg/mL,melanoma cells [4]; [13],~50%
same,surviving cells (in words),"melanoma cells [4]; 50 μg/ml, 48 h",hardly possible to detect any surviving cells
same,cytotoxic effectiveness relative to alterporriol I/J,"melanoma cells [4]; Alamar Blue, melanoma cells",at least 10 times
COc1cc(O)c2c(c1)C(=O)C1=C(C[C@@H](O)[C@@](C)(O)C1)C2=O [altersolanol B],anti-microbial activity,[5],anti-microbial activity
altersolanol D,anti-microbial activity,[5],completely ineffective
altersolanol F,anti-microbial activity,[5],completely ineffective
COc1cc(O)c2c(c1)[C@H](O)[C@H]1C[C@](C)(O)[C@H](O)C[C@@H]1C2=O [tetrahydroaltersolanol B],effect against Gram-positive bacteria and Pseudomonas aeruginosa,[8],do not disclose any effect
COc1cc(O)c(C(=O)O)c(-c2cc(O)c(O)cc2C)c1 [Altenusin],MIC,E. coli,62.5 µg/mL
same,MIC,[2]; Enterococcus faecalis,62.5 µg/mL
same,MIC,Streptococcus pneumoniae; Streptococcus pneumoniae,31.2 µg/mL
same,MIC,[3]; Staphylococcus aureus,31.2 µg/mL
same,MIC,Staphylococcus epidermis; Staphylococcus,31.2 µg/mL
COc1cc(O)c2c(c1)C(=O)c1cc(C)c(O)cc1C2=O [Macrosporin],MIC,E. coli; [14],62.5 µg/mL
same,MIC,[3]; [11],62.5 µg/mL
same,MIC,Staphylococcus epidermis; [12],62.5 µg/mL
COc1cc(O)c2c(c1)C(=O)C1=C(C[C@@H](O)[C@@](C)(O)[C@@H]1O)C2=O [altersolanol C],anti-microbial activity,[5],anti-microbial activity
COc1cc(O)c2c(c1)[C@H](O)[C@@H]1[C@@H](C2=O)[C@H](O)[C@@H](O)[C@@](C)(O)[C@@H]1O [Ampelanol],activity against bacteria and fungi,bacteria and fungi,do not show any activity against bacteria and fungi
"COc1cc(O)c2c(c1)C(=O)C1=C(C2=O)[C@H](O)[C@@H](O)[C@@](C)(O)[C@@H]1O [Altersolanol A, 7-methoxy-2-methyl-(1R,2S,3R,4S)-1,2,3,4-tetrahydro-1,2,3,4,5-pentahydroxy-anthracene-9,10-dione]",MIC,[1],7.8 µg/mL
same,MIC,E. coli; [14],62.5 µg/mL
same,MIC,[2]; [9],15.6 µg/mL
same,MIC,Streptococcus pneumoniae; [10],7.8 µg/mL
same,MIC,[3]; [11],7.8 µg/mL
same,MIC,Staphylococcus epidermis; [12],7.8 µg/mL
same,anti-microbial activity,[5],anti-microbial activity
same,activity against bacteria and fungi,bacteria and fungi,the most efficient of the tested substances
Macrosporin sulfate,MHK (MIC) STR,Streptococcus pneumoniae; [10],31.2 µg/mL
COc1cc(O)c2c(c1)C(=O)[C@H]1C[C@](C)(O)[C@H](O)C[C@@H]1[C@H]2O [Altersolanol J],MHK (MIC) ASP,[1],125 µg/mL
same,MHK (MIC) EK,[2]; [9],31.2 µg/mL
same,MHK (MIC) STR,Streptococcus pneumoniae; [10],15.6 µg/mL
same,MHK (MIC) MRSA,[3]; [11],62.5 µg/mL
same,MHK (MIC) SE,Staphylococcus epidermis; [12],62.5 µg/mL
same,MHK (MIC) KL,Klebsiella sp.,125 µg/mL
same,activity against bacteria and fungi,bacteria and fungi,do not show any activity against bacteria and fungi
